These results are taken from patent US12528818B2, “Compositions and methods for inhibition of RAS” (Leidos Biomedical Research, Inc., priority 2021, dated 2026).

Structures are written as SMILES.

One assay deals with pERK in NCI-H358 cells. The experiment in a line: Cell-based pERK HTRF assay (pERK inhibition in H358 cells). As to conditions: Homo sapiens, NCI-H358, 0.5 h, pERK inhibition IC50, NCI-H358 cells, 30 min incubation; read-out: PERK in H358 cell. The protocol: On Day 1, cells (NCI-H358) were seeded into 96-well plates at 4×10^4 cells/well in complete growth media (RPMI, 10% FBS).
The source plate was created with compounds diluted in media at 5-fold the final assay concentration. […] 20 μL was transferred onto the cell plates (final volume in wells was 100 μL). Plates were harvested after 30 min incubation by aspirating media and adding kit-supplied 1× supplemented lysis buffer to all wells (75 μl per well). Plates were then placed on a plate shaker and incubated at 850 rpm for an additional 30 min.
Antibody mixture solution was prepared by diluting aliquoted d2 and Eu Cryptate antibodies 1:20 in kit supplied detection buffer, then mixed the diluted antibodies solutions (1:1 v:v).
Samples were homogenized by pipetting up and down and then transferred (16 μL of cell lysates) from the 96-well cell culture plate to two wells of the HTRF 384-well detection plate containing the antibody solution. Plates were centrifuged (524 g for 1 min) and allowed to incubate between 4 and 24 h at room temperature. Maximum signal is reached after 4 h incubation time and remains stable over a period of 24 hours. Therefore, readings can be made between 4 and 24 h of incubation.
For the compound `CN1CCC[C@H]1COc1nc(NC2CCN(C#N)C2)c2cc(Cl)c(-c3ccc(F)c4sc(N)nc34)c(F)c2n1` (stereo partly drawn) [Compound 51], the IC50 lay within 0.1 to 1 µM.
Consider `C=CC(=O)N1CCC(N(C)c2nc(OC[C@@]34CCCN3C[C@H](OC)C4)nc3c(F)c(-c4ccc(F)c5sc(N)c(C#N)c45)c(C(F)(F)F)cc23)[C@H]1C` (stereo partly drawn) [Compound 476], for which the IC50 is below 0.1 µM.
In the case of `C=CC(=O)N1CCC(N(C)c2nc(OC[C@@]34CCCN3C[C@H](F)C4)nc3c(C#N)c(-c4ccc(F)c5sc(N)c(C#N)c45)ccc23)[C@H]1C` (stereo partly drawn) [Compound 404], the IC50 lay in the range of 0.1 to 1 µM.
As for `C=CC(=O)N1CC[C@@H](N(C)c2nc(OC[C@@]34CCCN3C[C@H](F)C4)nc3cc(-c4ccc(F)c5sc(N)c(C#N)c45)c(F)cc23)[C@H]1C` [Compound 390, 4-(4-((1-acryloyl-2-methylpyrrolidin-3-yl)(methyl)amino)-6-fluoro-2-(((2R,7aS)-2-fluorotetrahydro-1H-pyrrolizin-7a(5H)-yl)methoxy)quinazolin-7-yl)-2-amino-7-fluorobenzo[b]thiophene-3-carbonitrile], the IC50 was below 0.1 µM.
Consider `C=CC(=O)N1C[C@@H](F)[C@@H](N(C)c2nc(OC[C@@]34CCCN3C[C@H](F)C4)nc3cc(-c4ccc(F)c5sc(N)c(C#N)c45)c(C(F)(F)F)cc23)C1` [Compound 315, 4-(4-(((3S,4R)-1-acryloyl-4-fluoropyrrolidin-3-yl)(methyl)amino)-2-(((2R,7aS)-2-fluorotetrahydro-1H-pyrrolizin-7a(5H)-yl)methoxy)-6-(trifluoromethyl)quinazolin-7-yl)-2-amino-7-fluorobenzo[b]thiophene-3-carbonitrile], for which the IC50 was below 0.1 µM.
Turning to `C=CC(=O)N1CCN(c2nc(OCC34CCCN3CCC4)nc3c(F)c(-c4ccc(F)c5sc(N)nc45)c(C(C)(F)F)cc23)CC1` [Compound 284], the IC50 was above 1 µM.
As to `CC#CC(=O)N1CC(N(C)c2nc(OC[C@@H]3CCCN3C)nc3c(F)c(-c4ccc(F)c5sc(N)nc45)c(C(F)(F)F)cc23)C1` [Compound 129], the IC50 was 0.1 to 1 µM.
Turning to `C=CC(=O)N1C[C@H](C)N(c2nc(OC[C@@]34CCCN3C[C@H](F)C4)nc3c(F)c(-c4ccc(F)c5sc(N)nc45)c(OC(F)F)cc23)C[C@H]1C` [Compound 280], the IC50 was below 0.1 µM.
Take `C=CC(=O)N1CCC(N(C)c2nc(OC[C@@H]3CC4(CC4)CN3C)nc3c(F)c(-c4ccc(F)c5sc(N)c(C#N)c45)c(Cl)cc23)[C@H]1C` (stereo partly drawn) [Compound 448]: the IC50 is 0.1 to 1 µM.
On to `C=CC(=O)N1CCN(c2nc(OCC34CCCN3CCC4)nc3c(F)c(-c4ccc(F)c5sc(N)nc45)c(OC(F)F)cc23)CC1` [Compound 254], for which the IC50 lay within 0.1 to 1 µM.
Still for that read-out and setting: the same measure for `C=CC(=O)N1CCC(N(CC)c2nc(OC[C@@]34CCCN3C[C@H](F)C4)nc3cc(-c4ccc(F)c5sc(N)c(C#N)c45)ccc23)[C@H]1C` (stereo partly drawn) [Compound 431]: below 0.1 µM.
Take `C=CC(=O)N1CC[C@@H](N(CC)c2nc(OC[C@@]34CCCN3C[C@H](F)C4)nc3c(F)c(-c4ccc(F)c5sc(N)c(C#N)c45)c(Cl)cc23)[C@H]1C` [Compound 418]: the IC50 was in the range of 0.1 to 1 µM.
As to `C=CC(=O)N1CCC(N(C)c2nc(OC[C@@H]3C[C@@H](OC)CN3C)nc3c(F)c(-c4ccc(F)c5sc(N)c(C#N)c45)c(C(F)(F)F)cc23)[C@H]1C` (stereo partly drawn) [Compound 407], the IC50 is below 0.1 µM.
Still for that read-out and setting: with `C=CC(=O)N1CCN(c2nc(OCC34CCCN3CCC4)nc3c(F)c(-c4ccc(F)c5sc(N)nc45)c(-c4ccoc4)cc23)CC1` [Compound 119] the figure was above 1 µM; with `C=CC(=O)N1CC[C@@H]2[C@H]1CN2c1nc(OC[C@@H]2C[C@@H](F)CN2C)nc2c(F)c(-c3ccc(F)c4sc(N)nc34)c(C(F)(F)F)cc12` [Compound 138], below 0.1 µM.
Take `CN1CCC[C@H]1COc1nc(NC2CCN(C#N)CC2)c2cc(Cl)c(-c3ccc(F)c4sc(N)nc34)c(F)c2n1` [Compound 55]: the IC50 was above 1 µM.
Still for that read-out and setting: with `C=CC(=O)N1C[C@@H](N(C)c2nc(OC[C@@]34CCCN3C[C@H](F)C4)nc3c(F)c(-c4ccc(F)c5sc(N)nc45)c(C(F)(F)F)cc23)C(C)(C)C1` [Compound 283] the figure was above 1 µM; with `C=CC(=O)N1CC[C@@H](N(C)c2nc(OC[C@@H]3CC(C)(C)CN3C)nc3c(F)c(-c4ccc(F)c5sc(N)nc45)c(C(F)(F)F)cc23)C1` [Compound 265], below 0.1 µM; with `C=CC(=O)N1CCC(N(C)c2nc(OC[C@@H]3C[C@@H](F)CN3C)nc3cc(-c4ccc(F)c5sc(N)c(C#N)c45)c(C#N)cc23)[C@H]1COC` (stereo partly drawn) [Compound 444], below 0.1 µM.
In the case of `C=CC(=O)N1CC[C@@H](N(C)c2nc(OC[C@@]34CCCN3C[C@H](F)C4)nc3cc(-c4ccc(F)c5sc(N)c(C#N)c45)c(C(F)(F)F)cc23)C1` [Compound 306], the IC50 was below 0.1 µM.
On the same count and under the same terms, with `C=CC(=O)N1CCC(N(CC)c2nc(OC[C@@]34CCCN3C[C@H](F)C4)nc3c(C#N)c(-c4ccc(F)c5sc(N)c(C#N)c45)ccc23)[C@H]1C` (stereo partly drawn) [Compound 415, 4-((1-acryloyl-2-methylpyrrolidin-3-yl)(ethyl)amino)-7-(2-amino-3-cyano-7-fluorobenzo[b]thiophen-4-yl)-2-(((2R,7aS)-2-fluorotetrahydro-1H-pyrrolizin-7a(5H)-yl)methoxy)quinazoline-8-carbonitrile] the figure was below 0.1 µM; with `N#CN1CC(Nc2ncnc3c(F)c(-c4ccc(F)c5sc(N)nc45)c(C(F)(F)F)cc23)C1` [Compound 45], below 0.1 µM; with `CN1CCC[C@H]1COc1nc(NC2CCCN(C#N)C2)c2cc(Cl)c(-c3ccc(F)c4sc(N)nc34)c(F)c2n1` (stereo partly drawn) [Compound 53], above 1 µM.
In the case of `C=CC(=O)N1C[C@H](C)N(c2nc(OC[C@@]34CCCN3C[C@H](F)C4)nc3c(F)c(-c4ccc(F)c5sc(N)nc45)c(C(F)F)cc23)C[C@H]1C` [Compound 291], the IC50 is below 0.1 µM.
As to `C=CC(=O)N1C[C@@H](F)[C@@H](N(CC)c2nc(OC[C@@]34CCCN3C[C@H](F)C4)nc3cc(-c4ccc(F)c5sc(N)c(C#N)c45)ccc23)C1` [Compound 377], the IC50 was below 0.1 µM.
On to `C=CC(=O)N1C[C@H](C)N(c2nc(OC[C@@]34CCCN3C[C@H](F)C4)nc3c(F)c(-c4ccc(F)c5sc(N)c(C#N)c45)c(F)cc23)C[C@H]1C` [Compound 333], for which the IC50 is below 0.1 µM.
Turning to `C=CC(=O)N1CC(Nc2nc(OC[C@@H]3CCCN3C)nc3c(F)c(-c4ccc(F)c5sc(N)nc45)ncc23)C1` [Compound 43], the IC50 was above 1 µM.
`C=CC(=O)N1CCC(N(C)c2nc(OC[C@@H]3C[C@@H](OC)CN3C)nc3c(F)c(-c4ccc(F)c5sc(N)c(C#N)c45)c(Cl)cc23)[C@H]1C` (stereo partly drawn) [Compound 450]: the IC50 is below 0.1 µM.
The same measure, in the same setting: with `C=CC(=O)N1CCN(c2nc(OCC34CCCN3CCC4)nc3c(F)c(-c4ccc(F)c5sc(N)nc45)c(C(F)F)cc23)CC1` [Compound 246] the figure was 0.1 to 1 µM; with `C=CC(=O)N1CCN(c2nc(OC[C@]34CCCN3C[C@H](F)C4)nc3c(F)c(-c4ccc(F)c5sc(N)nc45)c(C(F)(F)F)cc23)C[C@H]1C` [Compound 190], below 0.1 µM.
For `C=CC(=O)N1CCN(c2nc(OC[C@@]34CCCN3C[C@H](F)C4)nc3c(F)c(-c4ccc(F)c5sc(N)c(C#N)c45)c(C(F)(F)F)cc23)CC1` [Compound 345], the IC50 is below 0.1 µM.
As for `C=CC(=O)N1C[C@H](N(C)c2ncnc3c(F)c(-c4ccc(F)c5sc(N)nc45)c(C(F)(F)F)cc23)C2(CC2)C1` (atropisomer, axis not shown) [Compound 263], the IC50 was above 1 µM.
On to `C=CC(=O)N1[C@H](C)CN(c2nc(OC[C@@]34CCCN3C[C@@H](F)C4)nc3c(F)c(-c4ccc(F)c5sc(N)nc45)c(C(F)(F)F)cc23)C[C@@H]1C` [Compound 224], for which the IC50 is below 0.1 µM.
For `C=CC(=O)N1CC[C@@H](N(C)c2ncnc3c(F)c(-c4ccc(F)c5sc(N)c(C#N)c45)c(C(F)(F)F)cc23)C1` [Compound 383, 4-(4-(((R)-1-acryloylpyrrolidin-3-yl)(methyl)amino)-8-fluoro-6-(trifluoromethyl)quinazolin-7-yl)-2-amino-7-fluorobenzo[b]thiophene-3-carbonitrile], the IC50 was below 0.1 µM.
For `C=CC(=O)N1CCC(N(C)c2nc(OC[C@@H]3CCCN3C)nc3c(F)c(-c4ccc(F)c5sc(N)c(C#N)c45)c(Cl)cc23)[C@H]1COC` (stereo partly drawn) [Compound 416], the IC50 was below 0.1 µM.
For `C=CC(=O)N1C[C@H](C)N(c2nc(OC[C@@]34CCCN3C[C@@H](F)C4)nc3c(F)c(-c4ccc(F)c5sc(N)nc45)c(C(F)(F)F)cc23)C[C@H]1C` [Compound 219], the IC50 was below 0.1 µM.

The assay is the same for the next values; noted with them: pERK inhibition IC50, NCI-H358 cells, 30 min incubation; read-out: PERK in H358 cell.
With `C=CC(=O)N1CC[C@@H](Nc2nc(OC[C@@]34CCCN3C[C@H](F)C4)nc3c(F)c(-c4ccc(F)c5sc(N)nc45)c(C(F)(F)F)cc23)C1` (single isomer, unassigned) [Compound 271], the IC50 is below 0.1 µM.
In the case of `C=CC(=O)N1CC[C@@H](N(C)c2nc(OC[C@@]34CCCN3C[C@H](F)C4)nc3c(F)c(-c4ccc(F)c5sc(N)c(C#N)c45)c(C(F)(F)F)cc23)[C@H]1C` (single isomer, unassigned) [Compound 434], the IC50 is below 0.1 µM.
For the compound `C=CC(=O)N1C[C@H](N(C)c2ncnc3c(F)c(-c4ccc(F)c5sc(N)nc45)c(C(F)(F)F)cc23)C[C@H]1C` (atropisomer, axis not shown) [Compound 251], the IC50 is above 1 µM.
